Experimental data from the supplement of paper PMC11451515.

Columns and labels:
Conditions in all cases: 48 h
NOMO1 [1] = assay: AUC of viability dose-response curve (% viability x log10 dose units); higher = less sensitive
Summary of the method: (§1)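 Over 48 h at 37°C, leukemia cells in 1536-well plates (500 or 1000 cells/well), adapted to each medium, received library compounds in DMSO at 11 threefold doses from 47 μM to 0.79 nM. CellTiter-Glo One luminescence, normalised per plate to DMSO and cell-free wells, was fitted by a four-parameter log-logistic function of log10 dose. The area under the curve was then integrated by trapezoidal rule, after scaling curves above full viability and removing those that failed quality control.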

P12-Ichikawa = assay: as above
Summary of the method: as §1

SEM cells [2] = assay: as above
Summary of the method: as §1

NOMO1 [3] = assay: cell viability relative to DMSO control; higher = less cytotoxic
Summary of the method: (§2)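 Leukemia cells (NOMO1 or SEM, 500 cells/well; P12-Ichikawa, 1000 cells/well) were seeded in 5 μl in 1536-well plates after at least four passages of adaptation to each medium. They received library compounds in DMSO by pin dosing, 11 threefold points from 47 μM to 0.79 nM. Luminescence with CellTiter-Glo One was read after 48 h at 37°C. Viability is stated per plate relative to DMSO wells, with cell-free wells as background.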

SEM cells [4] = assay: as above
Summary of the method: as §2

ClC1=C[NH]N=C1C\2NC(=N\C3=C2C(=O)CCC3)/NC4=NC5=CC=CC=C5O4 (centres undefined)
AUC of viability dose-response curve
Conditions | NOMO1 [1] | P12-Ichikawa | SEM cells [2]
HPLM + 10% dialyzed FBS | 457 | 464 | 460
RPMI 5 mM glucose + 10% FBS | 463 | 453 | 452
RPMI 5 mM glucose + 10% dialyzed FBS | 465 | 455 | 441

O=c1[nH]c2ccccc2n1CCCN1CCC(n2c(=O)[nH]c3cc(Cl)ccc32)CC1
NOMO1 [3], RPMI 5 mM glucose + 10% FBS
Conditions | cell viability [%]
0.000781 µM | 124
0.00234 µM | 146
0.00702 µM | 123
0.0211 µM | 134
0.0632 µM | 151
0.19 µM | 149
0.569 µM | 137
1.71 µM | 116
5.12 µM | 131
15.4 µM | 146
46.1 µM | 122

AUC of viability dose-response curve
Conditions | NOMO1 [1] | P12-Ichikawa | SEM cells [2]
HPLM + 10% dialyzed FBS | 459 | 467 | 448
RPMI 5 mM glucose + 10% FBS | 466 | 460 | 473
RPMI 5 mM glucose + 10% dialyzed FBS | 472 | 470 | 475

CCNC(=O)C[C@H]1/N=C(/C2=CC=C(Cl)C=C2)C3=CC(=CC=C3[N]4C(=NN=C14)C)OC
SEM cells [4], RPMI 5 mM glucose + 10% dialyzed FBS
Conditions | cell viability [%]
0.000781 µM | 122
0.00234 µM | 124
0.00702 µM | 138
0.0211 µM | 119
0.0632 µM | 141
0.19 µM | 117
0.569 µM | 155
1.71 µM | 122
5.12 µM | 108
15.4 µM | 99.4
46.1 µM | 22.2

AUC of viability dose-response curve
Conditions | NOMO1 [1] | P12-Ichikawa | SEM cells [2]
HPLM + 10% dialyzed FBS | 465 | 464 | 442
RPMI 5 mM glucose + 10% FBS | 461 | 460 | 450
RPMI 5 mM glucose + 10% dialyzed FBS | 445 | 462 | 440

OC[C@H]1O[C@@H](OCCc2ccc(O)cc2)[C@H](O)[C@@H](O)[C@@H]1O
AUC of viability dose-response curve
Conditions | NOMO1 [1] | P12-Ichikawa | SEM cells [2]
HPLM + 10% dialyzed FBS | 459 | 435 | 447
RPMI 5 mM glucose + 10% FBS | 458 | 456 | 432
RPMI 5 mM glucose + 10% dialyzed FBS | 464 | 461 | 419

O=C(c1ccc(OCCN2CCCCC2)cc1)c1c(-c2ccc(O)cc2)sc2cc(O)ccc12
Conditions | cell viability [%]
NOMO1 [3], HPLM + 10% dialyzed FBS, 0.000781 µM | 121
NOMO1 [3], HPLM + 10% dialyzed FBS, 0.00234 µM | 119
NOMO1 [3], HPLM + 10% dialyzed FBS, 0.00702 µM | 134
NOMO1 [3], HPLM + 10% dialyzed FBS, 0.0211 µM | 135
NOMO1 [3], HPLM + 10% dialyzed FBS, 0.0632 µM | 150
NOMO1 [3], HPLM + 10% dialyzed FBS, 0.19 µM | 145
NOMO1 [3], HPLM + 10% dialyzed FBS, 0.569 µM | 143
NOMO1 [3], HPLM + 10% dialyzed FBS, 1.71 µM | 133
NOMO1 [3], HPLM + 10% dialyzed FBS, 5.12 µM | 123
NOMO1 [3], HPLM + 10% dialyzed FBS, 15.4 µM | 126
NOMO1 [3], HPLM + 10% dialyzed FBS, 46.1 µM | 89.9
SEM cells [4], RPMI 5 mM glucose + 10% FBS, 0.000781 µM | 108
SEM cells [4], RPMI 5 mM glucose + 10% FBS, 0.00234 µM | 122
SEM cells [4], RPMI 5 mM glucose + 10% FBS, 0.00702 µM | 122
SEM cells [4], RPMI 5 mM glucose + 10% FBS, 0.0211 µM | 133
SEM cells [4], RPMI 5 mM glucose + 10% FBS, 0.0632 µM | 113
SEM cells [4], RPMI 5 mM glucose + 10% FBS, 0.19 µM | 42
SEM cells [4], RPMI 5 mM glucose + 10% FBS, 0.569 µM | 133
SEM cells [4], RPMI 5 mM glucose + 10% FBS, 1.71 µM | 94.1
SEM cells [4], RPMI 5 mM glucose + 10% FBS, 5.12 µM | 85.3
SEM cells [4], RPMI 5 mM glucose + 10% FBS, 15.4 µM | 117
SEM cells [4], RPMI 5 mM glucose + 10% FBS, 46.1 µM | 68.9

AUC of viability dose-response curve
Conditions | NOMO1 [1] | P12-Ichikawa | SEM cells [2]
HPLM + 10% dialyzed FBS | 466 | 442 | 413
RPMI 5 mM glucose + 10% FBS | 475 | 442 | 415
RPMI 5 mM glucose + 10% dialyzed FBS | 462 | 413 | 384

NC(=O)c1cccnc1
AUC of viability dose-response curve
Conditions | NOMO1 [1] | P12-Ichikawa | SEM cells [2]
HPLM + 10% dialyzed FBS | 438 | 451 | 448
RPMI 5 mM glucose + 10% FBS | 464 | 466 | 449
RPMI 5 mM glucose + 10% dialyzed FBS | 409 | 466 | 457

CCCCC(=O)O[C@]1(C(=O)CO)[C@H](C)C[C@H]2[C@@H]3CCC4=CC(=O)C=C[C@]4(C)[C@@]3(F)[C@@H](O)C[C@@]21C
cell viability [%]
Conditions | NOMO1 [3] | SEM cells [4]
HPLM + 10% dialyzed FBS, 0.000781 µM | 122 | 102
HPLM + 10% dialyzed FBS, 0.00234 µM | 129 | 122
HPLM + 10% dialyzed FBS, 0.00702 µM | 124 | 111
HPLM + 10% dialyzed FBS, 0.0211 µM | 135 | 96.2
HPLM + 10% dialyzed FBS, 0.0632 µM | 131 | 92.6
HPLM + 10% dialyzed FBS, 0.19 µM | 124 | 87.1
HPLM + 10% dialyzed FBS, 0.569 µM | 127 | 83.4
HPLM + 10% dialyzed FBS, 1.71 µM | 122 | 75.2
HPLM + 10% dialyzed FBS, 5.12 µM | 123 | 71
HPLM + 10% dialyzed FBS, 15.4 µM | 123 | 71.4
HPLM + 10% dialyzed FBS, 46.1 µM | 116 | 70.9
RPMI 5 mM glucose + 10% FBS, 0.000781 µM | – | 118
RPMI 5 mM glucose + 10% FBS, 0.00234 µM | – | 124
RPMI 5 mM glucose + 10% FBS, 0.00702 µM | – | 139
RPMI 5 mM glucose + 10% FBS, 0.0211 µM | – | 124
RPMI 5 mM glucose + 10% FBS, 0.0632 µM | – | 91.3
RPMI 5 mM glucose + 10% FBS, 0.19 µM | – | 98.2
RPMI 5 mM glucose + 10% FBS, 0.569 µM | – | 84.3
RPMI 5 mM glucose + 10% FBS, 1.71 µM | – | 73.9
RPMI 5 mM glucose + 10% FBS, 5.12 µM | – | 76.7
RPMI 5 mM glucose + 10% FBS, 15.4 µM | – | 70.3
RPMI 5 mM glucose + 10% FBS, 46.1 µM | – | 67.6

AUC of viability dose-response curve
Conditions | NOMO1 [1] | P12-Ichikawa | SEM cells [2]
HPLM + 10% dialyzed FBS | 467 | 372 | 378
RPMI 5 mM glucose + 10% FBS | 474 | 315 | 362
RPMI 5 mM glucose + 10% dialyzed FBS | 472 | 292 | 350

CN(C)C(=N)NC(=N)N
SEM cells [4], RPMI 5 mM glucose + 10% FBS
Conditions | cell viability [%]
0.000781 µM | 110
0.00234 µM | 122
0.00702 µM | 116
0.0211 µM | 132
0.0632 µM | 152
0.19 µM | 154
0.569 µM | 156
1.71 µM | 110
5.12 µM | 62.4
15.4 µM | 56.6
46.1 µM | 17.8

AUC of viability dose-response curve
Conditions | NOMO1 [1] | P12-Ichikawa | SEM cells [2]
HPLM + 10% dialyzed FBS | 437 | 442 | 436
RPMI 5 mM glucose + 10% FBS | 446 | 460 | 393
RPMI 5 mM glucose + 10% dialyzed FBS | 451 | 457 | 426

CCCc1cc(C(N)=S)ccn1
SEM cells [4], HPLM + 10% dialyzed FBS
Conditions | cell viability [%]
0.000781 µM | 92.5
0.00234 µM | 110
0.00702 µM | 111
0.0211 µM | 113
0.0632 µM | 114
0.19 µM | 117
0.569 µM | 85.6
1.71 µM | 56.3
5.12 µM | 119
15.4 µM | 130
46.1 µM | 133

AUC of viability dose-response curve
Conditions | NOMO1 [1] | P12-Ichikawa | SEM cells [2]
HPLM + 10% dialyzed FBS | 470 | 466 | 446
RPMI 5 mM glucose + 10% FBS | 472 | 436 | 469
RPMI 5 mM glucose + 10% dialyzed FBS | 465 | 472 | 475

OC[C@H]1O[C@@H](O[C@@H]2O\C=C(/[C@H]3C\C=C(CO)/[C@@H]23)C(O)=O)[C@H](O)[C@@H](O)[C@@H]1O
AUC of viability dose-response curve
Conditions | NOMO1 [1] | P12-Ichikawa | SEM cells [2]
HPLM + 10% dialyzed FBS | 453 | 449 | 452
RPMI 5 mM glucose + 10% FBS | 449 | 468 | 475
RPMI 5 mM glucose + 10% dialyzed FBS | 455 | 418 | 462

CCn1cc(-c2ccnc3[nH]c(-c4cccc(CN(C)C)c4)cc23)c(-c2ccc(NC(=O)N(C)C)cc2)n1
SEM cells [4], HPLM + 10% dialyzed FBS
Conditions | cell viability [%]
0.000781 µM | 123
0.00234 µM | 112
0.00702 µM | 135
0.0211 µM | 138
0.0632 µM | 79.6
0.19 µM | 52.5
0.569 µM | 44.8
1.71 µM | 48.9
5.12 µM | 41.6
15.4 µM | 19.4
46.1 µM | 9.33

AUC of viability dose-response curve
Conditions | NOMO1 [1] | P12-Ichikawa | SEM cells [2]
HPLM + 10% dialyzed FBS | 375 | 220 | 271
RPMI 5 mM glucose + 10% FBS | 318 | 234 | 224
RPMI 5 mM glucose + 10% dialyzed FBS | 323 | 252 | 233

CCC[C@H](NC(=O)[C@@H]1[C@H]2CCC[C@H]2CN1C(=O)[C@@H](NC(=O)[C@@H](NC(=O)c1cnccn1)C1CCCCC1)C(C)(C)C)C(=O)C(=O)NC1CC1
SEM cells [4], HPLM + 10% dialyzed FBS
Conditions | cell viability [%]
0.000781 µM | 106
0.00234 µM | 99.8
0.00702 µM | 106
0.0211 µM | 106
0.0632 µM | 111
0.19 µM | 118
0.569 µM | 118
1.71 µM | 119
5.12 µM | 127
15.4 µM | 111
46.1 µM | 116

AUC of viability dose-response curve
Conditions | NOMO1 [1] | P12-Ichikawa | SEM cells [2]
HPLM + 10% dialyzed FBS | 461 | 474 | 454
RPMI 5 mM glucose + 10% FBS | 474 | 473 | 469
RPMI 5 mM glucose + 10% dialyzed FBS | 472 | 476 | 470
